These results are taken from patent US5889029A, “Use of cotinine in treating psychiatric disorders” (priority 1997, dated 1999).

Read-outs that look alike come from different tables or passages of the source.

Series [1] in a line: Half-life, bioavailability and blood levels in humans. On the set-up: species or system human. As to conditions: in vivo.
Series [2] has as its target T1, Benzodiazepine (Peripheral) (Rattus norvegicus, UniProt P16257).
T1 construct: Rat kidney membranes; from tissue; host or cells: rat kidney membranes
The series can be described thus: Benzodiazepine (Peripheral) Binding Assay. The following applies: read-out: Receptor Binding Activity Percent Inhibition Average (N = 2).

For series [3] the following is noted: intramuscular injections; wide range of doses; squirrel monkeys; cited from earlier work.
Series [4] deals with T2, Histamine (H3) (Rattus norvegicus, UniProt Q9QYN8).
T2 construct: Rat forebrain membranes; from tissue; host or cells: rat forebrain membranes
T2 sequence (Q9QYN8 whole entry): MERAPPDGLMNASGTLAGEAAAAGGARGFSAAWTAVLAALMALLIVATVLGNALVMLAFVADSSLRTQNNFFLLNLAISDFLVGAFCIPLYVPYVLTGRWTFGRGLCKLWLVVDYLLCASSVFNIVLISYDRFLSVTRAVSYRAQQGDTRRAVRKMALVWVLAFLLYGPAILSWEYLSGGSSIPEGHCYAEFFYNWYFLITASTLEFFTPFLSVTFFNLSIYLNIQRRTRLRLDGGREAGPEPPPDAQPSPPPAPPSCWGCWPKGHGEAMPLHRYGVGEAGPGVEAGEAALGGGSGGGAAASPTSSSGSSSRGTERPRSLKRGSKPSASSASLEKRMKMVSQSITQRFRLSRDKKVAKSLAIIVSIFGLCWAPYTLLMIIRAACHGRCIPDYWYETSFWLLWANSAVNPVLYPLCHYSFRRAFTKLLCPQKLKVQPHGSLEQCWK
Put plainly: Histamine (H3) Binding Assay. As to conditions: Rat forebrain membranes, [3H]N^a-methylhistamine 0.2 nM, read-out: Receptor Binding Activity Percent Inhibition Average (N = 2).

For series [5] the following is noted: humans, cited from earlier work.
The conditions of series [6]: intravenous; cats; cited from earlier work.
For series [7] the following is noted: in vivo, cited from earlier work.
In series [8] the target is T3, Inositol Triphosphate (IP3) (Rattus norvegicus, UniProt P29994).
T3 construct: Rat cerebellar membranes; from tissue; host or cells: rat cerebellar membranes
T3 sequence (P29994 whole entry): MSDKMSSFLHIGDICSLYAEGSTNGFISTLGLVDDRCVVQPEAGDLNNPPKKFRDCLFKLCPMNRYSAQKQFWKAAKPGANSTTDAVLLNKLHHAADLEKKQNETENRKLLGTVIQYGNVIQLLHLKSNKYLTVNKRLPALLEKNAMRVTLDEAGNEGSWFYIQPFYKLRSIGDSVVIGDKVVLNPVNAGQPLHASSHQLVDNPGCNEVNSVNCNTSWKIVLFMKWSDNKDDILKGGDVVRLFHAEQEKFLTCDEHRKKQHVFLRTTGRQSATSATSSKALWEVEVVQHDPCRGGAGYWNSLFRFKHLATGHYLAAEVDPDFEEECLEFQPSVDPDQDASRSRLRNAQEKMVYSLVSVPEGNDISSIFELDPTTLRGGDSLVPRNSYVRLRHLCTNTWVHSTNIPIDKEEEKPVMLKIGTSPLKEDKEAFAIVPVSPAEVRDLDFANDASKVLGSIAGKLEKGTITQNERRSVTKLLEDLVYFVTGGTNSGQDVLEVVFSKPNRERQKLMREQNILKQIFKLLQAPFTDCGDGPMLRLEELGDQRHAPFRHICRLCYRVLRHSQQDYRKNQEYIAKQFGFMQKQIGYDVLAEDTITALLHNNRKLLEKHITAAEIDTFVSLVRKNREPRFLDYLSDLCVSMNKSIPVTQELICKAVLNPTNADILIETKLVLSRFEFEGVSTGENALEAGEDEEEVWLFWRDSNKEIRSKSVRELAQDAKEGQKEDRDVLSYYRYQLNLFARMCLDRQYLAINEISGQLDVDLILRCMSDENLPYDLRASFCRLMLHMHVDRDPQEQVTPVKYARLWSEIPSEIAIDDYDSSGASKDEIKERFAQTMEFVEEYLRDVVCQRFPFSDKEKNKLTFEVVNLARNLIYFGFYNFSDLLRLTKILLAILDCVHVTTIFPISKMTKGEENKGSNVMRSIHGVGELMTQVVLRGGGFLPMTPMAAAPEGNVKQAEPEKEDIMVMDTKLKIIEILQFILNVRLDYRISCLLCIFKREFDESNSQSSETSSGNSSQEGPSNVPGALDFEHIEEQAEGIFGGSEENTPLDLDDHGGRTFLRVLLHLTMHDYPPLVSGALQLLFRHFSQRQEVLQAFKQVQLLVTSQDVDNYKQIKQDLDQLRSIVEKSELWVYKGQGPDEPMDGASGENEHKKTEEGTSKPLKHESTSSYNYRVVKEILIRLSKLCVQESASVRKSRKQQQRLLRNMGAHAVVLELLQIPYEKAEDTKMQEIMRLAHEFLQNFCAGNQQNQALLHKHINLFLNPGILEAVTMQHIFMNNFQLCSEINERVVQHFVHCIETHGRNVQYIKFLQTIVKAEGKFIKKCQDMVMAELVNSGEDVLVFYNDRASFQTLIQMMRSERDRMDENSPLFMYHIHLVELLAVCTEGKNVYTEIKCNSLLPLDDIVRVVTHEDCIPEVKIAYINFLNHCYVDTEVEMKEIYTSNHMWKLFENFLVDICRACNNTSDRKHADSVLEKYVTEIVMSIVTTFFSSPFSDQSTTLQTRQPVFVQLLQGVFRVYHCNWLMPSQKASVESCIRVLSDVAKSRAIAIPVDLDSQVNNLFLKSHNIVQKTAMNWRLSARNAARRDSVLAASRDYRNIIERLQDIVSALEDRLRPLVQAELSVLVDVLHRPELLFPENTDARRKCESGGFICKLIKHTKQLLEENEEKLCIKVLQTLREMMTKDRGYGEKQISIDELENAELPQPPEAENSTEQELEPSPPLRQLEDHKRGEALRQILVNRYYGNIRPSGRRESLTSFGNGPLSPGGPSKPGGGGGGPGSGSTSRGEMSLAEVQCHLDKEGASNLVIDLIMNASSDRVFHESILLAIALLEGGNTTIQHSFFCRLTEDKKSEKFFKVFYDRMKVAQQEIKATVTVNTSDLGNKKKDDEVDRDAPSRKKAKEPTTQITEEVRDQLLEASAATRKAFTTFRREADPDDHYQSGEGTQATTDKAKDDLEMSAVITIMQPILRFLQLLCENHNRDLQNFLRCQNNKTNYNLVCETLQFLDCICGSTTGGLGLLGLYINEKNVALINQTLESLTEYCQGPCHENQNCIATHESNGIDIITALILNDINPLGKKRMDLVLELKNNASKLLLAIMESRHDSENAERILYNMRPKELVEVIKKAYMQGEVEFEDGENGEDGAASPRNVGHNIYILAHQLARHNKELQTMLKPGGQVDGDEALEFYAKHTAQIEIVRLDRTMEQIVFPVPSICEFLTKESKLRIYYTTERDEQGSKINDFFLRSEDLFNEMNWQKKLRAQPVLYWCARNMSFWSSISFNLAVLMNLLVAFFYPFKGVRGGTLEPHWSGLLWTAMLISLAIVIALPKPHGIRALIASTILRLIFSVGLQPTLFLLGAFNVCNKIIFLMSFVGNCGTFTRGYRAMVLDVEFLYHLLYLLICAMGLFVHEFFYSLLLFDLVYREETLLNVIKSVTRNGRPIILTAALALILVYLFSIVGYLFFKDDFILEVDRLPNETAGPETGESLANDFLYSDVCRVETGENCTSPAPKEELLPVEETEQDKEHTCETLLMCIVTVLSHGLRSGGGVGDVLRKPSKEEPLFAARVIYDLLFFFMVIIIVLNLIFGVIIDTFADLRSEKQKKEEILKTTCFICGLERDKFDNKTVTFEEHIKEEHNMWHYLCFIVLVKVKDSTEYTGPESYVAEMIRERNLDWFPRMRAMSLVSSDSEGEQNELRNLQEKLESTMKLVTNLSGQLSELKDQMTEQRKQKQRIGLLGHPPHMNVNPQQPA
The series can be described thus: Inositol Triphosphate (IP3) Binding Assay. As to conditions: Rat cerebellar membranes, [3H]IP3 4.0 nM, read-out: Receptor Binding Activity Percent Inhibition Average (N = 2). The method, then:
Tissue cultures were prepared using standard laboratory practice for the following tissues: human recombinant M1 clone, human recombinant M2 clone, guinea pig striatal membranes, rat cortical membranes, rat striatal membranes, rat forebrain membranes, bovine hippocampal membranes, guinea pig cerebellar membranes, rat kidney membranes, recombinant rat 5HT7 clone, and rat cerebellar membranes.
Inositol Triphosphate (IP3) Binding Assay
Rat cerebellar membranes
Radioligand: [^3 H]IP3 (10-30 Ci/mmol)
Final ligand concentration - [4.0 nM]
D-myo-inositol 1,4,5-triphosphate
Reactions are carried out in 50 mM TRIS-HCl (pH 8.3)
1 mM EDTA at 0° C. for 10 minutes. The reaction is
rapid vacuum filtration onto glass fiber filters.
onto the filters is determined and compared to control
order to ascertain any interactions of test compound with
inositol triphospate binding site.

Series [9] addresses T4, recombinant Rat 5HT7 Clone (Rattus norvegicus, UniProt P32305).
T4 construct: expressed in transfected cells
The series can be described thus: Serotonin--5HT7 Clone Binding Assay. The following applies: [3H]LSD 2.0 nM, read-out: Receptor Binding Activity Percent Inhibition Average (N = 2).

Series [10] concerns the target T5, Human recombinant M1 clone (Homo sapiens, UniProt P11229).
T5 construct: expressed in transfected cells
T5 sequence (P11229 1-460): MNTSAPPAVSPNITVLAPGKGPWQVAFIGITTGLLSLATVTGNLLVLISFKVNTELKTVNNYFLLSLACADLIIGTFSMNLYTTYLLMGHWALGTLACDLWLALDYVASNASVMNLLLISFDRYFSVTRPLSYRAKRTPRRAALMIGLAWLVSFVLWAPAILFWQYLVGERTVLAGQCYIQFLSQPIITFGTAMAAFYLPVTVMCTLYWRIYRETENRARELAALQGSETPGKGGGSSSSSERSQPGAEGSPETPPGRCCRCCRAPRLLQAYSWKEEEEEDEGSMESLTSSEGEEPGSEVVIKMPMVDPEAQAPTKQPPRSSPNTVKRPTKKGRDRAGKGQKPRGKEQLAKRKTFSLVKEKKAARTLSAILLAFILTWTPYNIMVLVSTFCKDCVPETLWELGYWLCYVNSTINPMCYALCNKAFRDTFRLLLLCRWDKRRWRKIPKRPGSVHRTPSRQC
Put plainly: biochemical. Type of series: binding.

Series [11] deals with Serotonin (5HT1). Put plainly: Serotonin (5HT1) Binding Assay. As to conditions: Rat cortical membranes, [3H]Hydroxytryptamine binoxalate 3.0 nM.
[12] abbreviates: read-out: Receptor Binding Activity Percent Inhibition Average (N = 2).

T1 sequence (P16257 whole entry): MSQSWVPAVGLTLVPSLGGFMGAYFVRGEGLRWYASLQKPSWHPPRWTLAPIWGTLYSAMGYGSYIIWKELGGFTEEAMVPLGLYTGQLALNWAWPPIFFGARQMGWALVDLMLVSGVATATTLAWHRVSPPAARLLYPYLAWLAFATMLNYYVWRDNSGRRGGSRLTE
T4 sequence (P32305 whole entry): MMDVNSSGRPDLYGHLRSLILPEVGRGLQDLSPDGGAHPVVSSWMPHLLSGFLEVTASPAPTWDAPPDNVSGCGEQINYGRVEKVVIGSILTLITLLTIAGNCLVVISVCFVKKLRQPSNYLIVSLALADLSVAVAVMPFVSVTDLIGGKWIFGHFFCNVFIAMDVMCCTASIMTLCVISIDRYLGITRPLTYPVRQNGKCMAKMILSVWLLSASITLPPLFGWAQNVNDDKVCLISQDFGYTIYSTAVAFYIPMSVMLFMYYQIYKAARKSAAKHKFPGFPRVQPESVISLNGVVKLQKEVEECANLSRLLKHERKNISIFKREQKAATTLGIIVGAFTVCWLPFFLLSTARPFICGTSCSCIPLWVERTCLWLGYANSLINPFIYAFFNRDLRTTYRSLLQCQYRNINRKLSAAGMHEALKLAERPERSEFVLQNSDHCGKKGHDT

With `CN1C(=O)CCC1c1cccnc1` (single isomer, unassigned) [Cotinine, 1-methyl-5-(3-pyridinyl)-2-pyrrolidionone], in series [1], the “duration of effectiveness relative to nicotine, due to greater half-life” value is listed as “about eight”. In addition, the inhibition at 1 µM was 8.5% in series [2]; 11.9% in [4] (10^-6 M); 4.8% in series [8] (10^-6 M); -0.3% in series [9] (10^-6 M); 15.5% in [10] (setting [12]). In addition, the inhibition at 100 µM in series [2] worked out at 1.4%; in series [4] (10^-4 M), 15.7%; in [8] (10^-4 M), 8.3%; in series [9] (10^-4 M), 6.4%; in series [10] (setting [12]), 19.5%. In addition, the “rates of responding on fixed interval schedules of reinforcement” value in series [3] was “increased rates of responding”. In addition, the cardiovascular changes result in [5] (intravenous infusion over 60 minutes) is reported as “no cardiovascular changes”. The “subjective ratings of desire to smoke, irritability, low energy and anxiety/tension” value in series [5] (intravenous infusion over 60 minutes, comparable to placebo-induced changes) was “significant decreases”. In series [5] (rapid infusion over 5 minutes), the subjective ratings result was “no significant changes”. For the same molecule, in series [6], the “EEG activity and behavioral arousal” value was “increases only slightly”. Moreover, the blood pressure result in series [6] was “only a slight decrease”. The “passage of the blood-brain barrier” value is recorded as “pass the blood-brain barrier” in [7] and “capable of passing the blood-brain barrier” in series [7] (listed as cotinine). Also, the “effectiveness in binding relative to an equal concentration of nicotine, binding expressed as percent inhibition” value in [10] is “about 19 times”. The “Receptor Binding Activity Percent Inhibition Average (N = 2)” value in series [11] (10^-4 M) was -0.8%; in [11] (10^-6 M), 10.9%.

What is called inhibition is the drop in the measured response relative to a control, in per cent.
